Laboratory results as given in ChEMBL document CHEMBL1201862, “PubChem BioAssay data set” (2004).
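48-hour exposure; five concentrations; linearly interpolated endpoints. GI50 = concentration required for 50% inhibition of growth.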 The source made the active and inactive calls. Rule as the data show it: active = GI50 up to about 1.1 µM and inactive = higher.

How the values were obtained:
Assay in all cases: DTP human tumour cell line panel, 48 h
MDA-N = system: MDA-N
SK-MEL-28 = system: SK-MEL-28
NCI-H460 = system: NCI-H460
UO-31 = system: UO-31
MDA-MB-435 = system: MDA-MB-435
SK-MEL-2 = system: SK-MEL-2
SF-539 = system: SF-539
SW-620 = system: SW-620
CCRF-CEM = system: CCRF-CEM
MOLT-4 = system: MOLT-4
MDA-MB-231 = system: MDA-MB-231
SF-295 = system: SF-295
NCI-H522 = system: NCI-H522
SK-MEL-5 = system: SK-MEL-5
UACC-62 = system: UACC-62
CAKI-1 = system: CAKI-1
SK-OV-3 = system: SK-OV-3
MCF7 = system: MCF7
DU-145 = system: DU-145
RPMI-8226 = system: RPMI-8226

Measured: GI50

CCOC(=O)C1(Cc2ccc3c(c2)CCC3)Cc2cc3c(cc2C1=O)CCC3 (stereo not given)
inactive: MDA-N 41.4 µM | SK-MEL-28 > 100 µM | NCI-H460 41.9 µM | UO-31 42.3 µM | MDA-MB-435 36.3 µM | SK-MEL-2 > 100 µM | SF-539 > 100 µM | SW-620 > 85.1 µM | CCRF-CEM 11.9 µM | MOLT-4 11.9 µM | MDA-MB-231 48.4 µM | SF-295 48.3 µM | NCI-H522 47.8 µM | SK-MEL-5 20.1 µM | UACC-62 > 100 µM | CAKI-1 > 46.3 µM | SK-OV-3 > 100 µM | MCF7 33.7 µM | DU-145 75.5 µM | RPMI-8226 19.2 µM
